Target: T1, HDAC6 enzyme (Homo sapiens, UniProt Q9UBN7)
T1 construct: prepared by transducing full length HDAC1 and HDAC6 genes into Sf-9 insect cells; GST; purchased SignalChem; host or cells: Sf-9 insect cells
T1 sequence (Q9UBN7 1-1215): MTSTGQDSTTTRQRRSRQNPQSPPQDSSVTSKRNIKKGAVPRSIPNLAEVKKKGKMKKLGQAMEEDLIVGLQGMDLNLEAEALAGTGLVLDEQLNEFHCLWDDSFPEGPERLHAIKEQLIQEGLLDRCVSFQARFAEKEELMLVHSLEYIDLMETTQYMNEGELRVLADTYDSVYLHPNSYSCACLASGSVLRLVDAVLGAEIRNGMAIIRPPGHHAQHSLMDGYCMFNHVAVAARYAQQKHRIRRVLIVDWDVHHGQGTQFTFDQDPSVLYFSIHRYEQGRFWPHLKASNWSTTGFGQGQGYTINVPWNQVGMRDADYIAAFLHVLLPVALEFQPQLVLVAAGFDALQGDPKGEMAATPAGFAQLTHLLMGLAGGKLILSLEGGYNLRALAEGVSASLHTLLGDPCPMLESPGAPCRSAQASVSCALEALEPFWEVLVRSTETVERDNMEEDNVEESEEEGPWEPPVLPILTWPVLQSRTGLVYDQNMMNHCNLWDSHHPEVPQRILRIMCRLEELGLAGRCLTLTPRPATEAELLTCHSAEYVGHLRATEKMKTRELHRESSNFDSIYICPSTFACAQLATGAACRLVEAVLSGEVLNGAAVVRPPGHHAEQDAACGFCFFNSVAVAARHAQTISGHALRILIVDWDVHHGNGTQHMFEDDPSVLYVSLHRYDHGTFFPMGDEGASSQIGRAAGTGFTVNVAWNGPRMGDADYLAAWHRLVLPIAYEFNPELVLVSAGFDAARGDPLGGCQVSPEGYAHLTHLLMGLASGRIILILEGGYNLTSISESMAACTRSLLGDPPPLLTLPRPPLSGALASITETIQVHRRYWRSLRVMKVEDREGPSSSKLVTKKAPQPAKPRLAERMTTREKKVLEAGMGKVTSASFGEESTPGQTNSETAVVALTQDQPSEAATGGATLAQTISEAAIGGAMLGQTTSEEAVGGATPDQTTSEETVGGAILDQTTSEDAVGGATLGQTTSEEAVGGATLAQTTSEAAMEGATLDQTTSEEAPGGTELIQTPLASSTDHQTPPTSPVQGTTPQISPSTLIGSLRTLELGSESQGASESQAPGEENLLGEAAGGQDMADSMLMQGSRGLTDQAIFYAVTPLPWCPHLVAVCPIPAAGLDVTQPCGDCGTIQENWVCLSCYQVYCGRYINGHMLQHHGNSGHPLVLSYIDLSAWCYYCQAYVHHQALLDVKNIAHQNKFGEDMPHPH
Experiment: HDAC6 enzyme inhibitory assay (HDAC-Glo I/II Assay kit)
Format: biochemical
Settings: 1 μM test compound; read-out: HDAC6 inhibitory rate (%) (1 μM)
Protocol: HDAC1 enzyme and HDAC6 enzyme each prepared by transducing full length HDAC1 and HDAC6 genes into Sf-9 insect cells and purifying by GST affinity column were purchased from SignalChem. Using these enzymes, HDAC1 and/or HDAC6 enzyme inhibitory activities of the compound of the present invention were evaluated. Enzymes were used after preserved at −70° C. HDAC1 or HDAC6 enzyme inhibitory activity of the compound of the present invention was measured using HDAC-Glo™ I/II Assay kit (Promega) according to the following experimental method. The test compound diluted with assay buffer (24 mM Tris-HCl (pH 7.5), 1 mM MgCl2, 0.35 mM KCl, 135 mM NaCl, 0.6 mM Glutathione, 0.01% Tween-20) was added to a 384-well plate by each 2 μL. Then, HDAC1 or HDAC6 enzyme solution diluted with assay buffer was added thereto by each 4 μL, and the plate was incubated at room temperature for 60 min. After incubated, HDAC substrate-Developer solution prepared according to Promega protocol attached to the assay kit was added to the 384-well plate by each 2 μL, and the enzyme reaction was started. After reacting at room temperature for 20 min, luminescence level was measured using plate reader Envision (PerkinElmer). The inhibitory activity of each compound was calculated as a relative activity value when luminescence level in wells without enzyme is considered as 100% inhibition.

Row | Structure (SMILES) | inhibition at 1 µM [%]
1 | N#Cc1cc(F)cc(C(=O)N2CCOC[C@H]2CNC(=O)c2ccc(-c3noc(C(F)(F)F)n3)cc2)c1 [Example 156, N-(((3R)-4-(3-cyano-5-fluorobenzoyl)morpholin-3-yl)methyl)-4-(5-(trifluoromethyl)-1,2,4-oxadiazol-3-yl)benzamide] | 95
2 | O=C(NCC1Cc2ccccc2N1C(=O)C1CC1)c1ccc(-c2noc(C(F)(F)F)n2)cc1 (stereo not shown) [Example 166, N-((1-(cyclopropylcarbonyl)-2,3-dihydro-1H-indol-2-yl)methyl)-4-(5-(trifluoromethyl)-1,2,4-oxadiazol-3-yl)benzamide] | 98
3 | O=C(NCC1Cc2ccccc2N1C(=O)c1cc(Cl)cc(Cl)c1)c1ccc(-c2noc(C(F)(F)F)n2)cc1 (stereo not shown) [Example 168, N-((1-(3,5-dichlorobenzoyl)-2,3-dihydro-1H-indol-2-yl)methyl)-4-(5-(trifluoromethyl)-1,2,4-oxadiazol-3-yl)benzamide] | 70
4 | O=C(NCC1c2ccccc2CN1C(=O)C1CC1)c1ccc(-c2noc(C(F)(F)F)n2)cc1 (stereo not shown) [Example 169, N-((2-(cyclopropylcarbonyl)-2,3-dihydro-1H-isoindol-1-yl)methyl)-4-(5-(trifluoromethyl)-1,2,4-oxadiazol-3-yl)benzamide] | 84
5 | O=C(NCC1c2ccccc2CN1C(=O)c1ccccc1)c1ccc(-c2noc(C(F)(F)F)n2)cc1 (stereo not shown) [Example 170, N-((2-benzoyl-2,3-dihydro-1H-isoindol-1-yl)methyl)-4-(5-(trifluoromethyl)-1,2,4-oxadiazol-3-yl)benzamide] | 80
6 | O=C(NCC1c2ccccc2CN1C(=O)c1cc(Cl)cc(Cl)c1)c1ccc(-c2noc(C(F)(F)F)n2)cc1 (stereo not shown) [Example 171, N-((2-(3,5-dichlorobenzoyl)-2,3-dihydro-1H-isoindol-1-yl)methyl)-4-(5-(trifluoromethyl)-1,2,4-oxadiazol-3-yl)benzamide] | 66
7 | O=C(NCC1Cc2ccccc2CN1C(=O)C1CC1)c1ccc(-c2noc(C(F)(F)F)n2)cc1 (stereo not shown) [Example 174, N-((2-(cyclopropylcarbonyl)-1,2,3,4-tetrahydroisoquinolin-3-yl)methyl)-4-(5-(trifluoromethyl)-1,2,4-oxadiazol-3-yl)benzamide] | 94
8 | O=C(NCC1Cc2ccccc2CN1C(=O)c1cc(Cl)cc(Cl)c1)c1ccc(-c2noc(C(F)(F)F)n2)cc1 (stereo not shown) [Example 176, N-((2-(3,5-dichlorobenzoyl)-1,2,3,4-tetrahydroisoquinolin-3-yl)methyl)-4-(5-(trifluoromethyl)-1,2,4-oxadiazol-3-yl)benzamide] | 82
9 | O=C(NCC1COCCN1C(=O)c1ccccc1)c1ccc(-c2noc(C(F)(F)F)n2)nc1 (stereo not shown) [Example 180, N-((4-benzoylmorpholin-3-yl)methyl)-6-(5-(trifluoromethyl)-1,2,4-oxadiazol-3-yl)nicotinamide] | 91
10 | O=C(NC[C@H]1COCCN1C(=O)c1cccc(F)c1)c1ccc(-c2noc(C(F)(F)F)n2)cn1 [Example 185, N-(((3S)-4-(3-fluorobenzoyl)morpholin-3-yl)methyl)-5-(5-(trifluoromethyl)-1,2,4-oxadiazol-3-yl)pyridine-2-carboxamide] | 97
11 | O=C(NC[C@H]1COCCN1C(=O)c1cc(F)cc(F)c1)c1ccc(-c2noc(C(F)(F)F)n2)cn1 [Example 186, N-(((3S)-4-(3,5-difluorobenzoyl)morpholin-3-yl)methyl)-5-(5-(trifluoromethyl)-1,2,4-oxadiazol-3-yl)pyridine-2-carboxamide] | 99
12 | N#Cc1ccccc1C(=O)N1CCOC[C@@H]1CNC(=O)c1ccc(-c2noc(C(F)(F)F)n2)cn1 [Example 187, N-(((3S)-4-(2-cyanobenzoyl)morpholin-3-yl)methyl)-5-(5-(trifluoromethyl)-1,2,4-oxadiazol-3-yl)pyridine-2-carboxamide] | 94
13 | N#Cc1cccc(C(=O)N2CCOC[C@@H]2CNC(=O)c2ccc(-c3noc(C(F)(F)F)n3)cn2)c1 [Example 188, N-(((3S)-4-(3-cyanobenzoyl)morpholin-3-yl)methyl)-5-(5-(trifluoromethyl)-1,2,4-oxadiazol-3-yl)pyridine-2-carboxamide] | 95
14 | N#Cc1cc(F)cc(C(=O)N2CCOC[C@@H]2CNC(=O)c2ccc(-c3noc(C(F)(F)F)n3)cn2)c1 [Example 189, N-(((3S)-4-(3-cyano-5-fluorobenzoyl)morpholin-3-yl)methyl)-5-(5-(trifluoromethyl)-1,2,4-oxadiazol-3-yl)pyridine-2-carboxamide] | 95
15 | N#Cc1ccc(C(=O)N2CCOC[C@@H]2CNC(=O)c2ccc(-c3noc(C(F)(F)F)n3)cn2)cc1 [Example 190, N-(((3S)-4-(4-cyanobenzoyl)morpholin-3-yl)methyl)-5-(5-(trifluoromethyl)-1,2,4-oxadiazol-3-yl)pyridine-2-carboxamide] | 95
16 | O=C(NC[C@H]1COCCN1C(=O)c1ccncc1)c1ccc(-c2noc(C(F)(F)F)n2)cn1 [Example 191, N-(((3S)-4-isonicotinoylmorpholin-3-yl)methyl)-5-(5-(trifluoromethyl)-1,2,4-oxadiazol-3-yl)pyridine-2-carboxamide] | 96
17 | Cn1nccc1C(=O)N1CCOC[C@@H]1CNC(=O)c1ccc(-c2noc(C(F)(F)F)n2)cn1 [Example 192, N-(((3S)-4-((1-methyl-1H-pyrazol-5-yl)carbonyl)morpholin-3-yl)methyl)-5-(5-(trifluoromethyl)-1,2,4-oxadiazol-3-yl)pyridine-2-carboxamide] | 94
18 | Cc1ncsc1C(=O)N1CCOC[C@@H]1CNC(=O)c1ccc(-c2noc(C(F)(F)F)n2)cn1 [Example 196, N-(((3S)-4-((4-methyl-1,3-thiazol-5-yl)carbonyl)morpholin-3-yl)methyl)-5-(5-(trifluoromethyl)-1,2,4-oxadiazol-3-yl)pyridine-2-carboxamide] | 96
19 | O=C(NC[C@H]1COCCN1C(=O)c1cccs1)c1ccc(-c2noc(C(F)(F)F)n2)cn1 [Example 197, N-(((3S)-4-(2-thienylcarbonyl)morpholin-3-yl)methyl)-5-(5-(trifluoromethyl)-1,2,4-oxadiazol-3-yl)pyridine-2-carboxamide] | 97
20 | Cc1ccsc1C(=O)N1CCOC[C@@H]1CNC(=O)c1ccc(-c2noc(C(F)(F)F)n2)cn1 [Example 198, N-(((3S)-4-((3-methyl-2-thienyl)carbonyl)morpholin-3-yl)methyl)-5-(5-(trifluoromethyl)-1,2,4-oxadiazol-3-yl)pyridine-2-carboxamide] | 99
21 | O=C(NC[C@H]1COCCN1C(=O)C1CCc2ccccc2O1)c1ccc(-c2noc(C(F)(F)F)n2)cn1 (stereo partly drawn) [Example 199, N-(((3S)-4-(3,4-dihydro-2H-chromen-2-ylcarbonyl)morpholin-3-yl)methyl)-5-(5-(trifluoromethyl)-1,2,4-oxadiazol-3-yl)pyridine-2-carboxamide] | 94
22 | O=C(NC[C@H]1COCCN1C(=O)c1cc2ccccc2o1)c1ccc(-c2noc(C(F)(F)F)n2)cn1 [Example 200, N-(((3S)-4-(1-benzofuran-2-ylcarbonyl)morpholin-3-yl)methyl)-5-(5-(trifluoromethyl)-1,2,4-oxadiazol-3-yl)pyridine-2-carboxamide] | 91

From US10081624B2, “Heterocyclic compound” (Takeda Pharmaceutical Company Limited, priority 2014, dated 2018)
